These are literature values, as cited in paper PMC9884426, “A phase 1 clinical trial of the repurposable acetyllysine mimetic, n-methyl-2-pyrrolidone (NMP), in relapsed or refractory multiple myeloma” (Clinical Epigenetics, 2023).

Details of this data set: method as in PMID 9029058. As to conditions: human, cited from earlier work; for elimination half-life: NMP metabolites; for amount found in urine: after a single 100 mg oral dose of NMP.

For the compound `CN1C(=O)CC(O)C1=O` (centres unmarked) [2-HMSI, 2-hydroxy-N-methylsuccinimide], the elimination half-life is reported as 17 h and the “amount found in urine” value is 20%.
As for `CN1C(=O)CCC1O` (centres unmarked) [5-HNMP, 5-hydroxy-N-methyl-2-pyrrolidone], the “amount found in urine” value was 44%.
As for `CN1C(=O)CCC1=O` [MSI, N-methylsuccinimide], the elimination half-life is 8 h and the “amount found in urine” value is 0.4%.
